pEC50, pIC50, pKd: −log10 of the molar value.
Legend:
[1] = target: Calcium/calmodulin-dependent protein kinase kinase 2 (Homo sapiens, UniProt Q96RR4); experiment: Induction of ePL tagged degradation of CaMKK2 (unknown origin) expressed in […] cells incubated for 24 hrs by luminescence based analysis; format: cell-based, HEK293T
[2] = target: Calcium/calmodulin-dependent protein kinase kinase 1 (Homo sapiens, UniProt Q8N5S9); experiment: Inhibition of CaMKK1 (unknown origin) incubated for 20 mins in presence of kinase tracer 236 by TR-FRET
[3] = Cmax in C57BL/6 mouse at 10 mg/kg, sc measured upto 72 hrs; format: ADME, organism-based; parameters: dose 10 mg/kg, time < 72 hrs, route sc; conditions: in vivo
[4] = target: Von Hippel-Lindau disease tumor suppressor/Elongin B/Elongin C (Homo sapiens, UniProt P40337); experiment: Binding affinity to N-terminal 6 his tagged VHL (54 to 213 residues)/truncated ElonginC (17 to 122 residues) /full length ElonginB (unknown origin) expressed in Escherichia coli assessed as dissociation constant measured upto 300 secs by SPR analysis
[5] = AUC (0 to 24 hrs) in C57BL/6 mouse at 10 mg/kg, po measured upto 72 hrs; format: ADME, organism-based; parameters: dose 10 mg/kg, time < 72 hrs, route po; conditions: in vivo
A-427 = experiment: Antiproliferative activity against human A-427 cells assessed as reduction in cell growth incubated for 48 hrs by CellTiter assay; conditions: A-427, 48 h
[6] = Cmax in C57BL/6 mouse at 10 mg/kg, po measured upto 72 hrs; format: ADME, organism-based; parameters: time < 72 hrs, dose 10 mg/kg, route po; conditions: in vivo
[7] = Bioavailability in C57BL/6 mouse at 10 mg/kg, sc measured upto 72 hrs; format: ADME, organism-based; conditions: in vivo
[8] = Oral bioavailability in C57BL/6 mouse at 10 mg/kg measured upto 72 hrs; format: ADME, organism-based; conditions: in vivo
[9] = Half life in C57BL/6 mouse at 10 mg/kg, sc measured upto 72 hrs; format: ADME, organism-based; conditions: in vivo
[10] = Tmax in C57BL/6 mouse at 10 mg/kg, sc measured upto 72 hrs; format: ADME, organism-based; conditions: in vivo
[11] = AUC (0 to 24 hrs) in C57BL/6 mouse at 10 mg/kg, sc measured upto 72 hrs; format: ADME, organism-based; parameters: time < 72 hrs, dose 10 mg/kg, route sc; conditions: in vivo
[12] = Tmax in C57BL/6 mouse at 10 mg/kg, po measured upto 72 hrs; format: ADME, organism-based; conditions: in vivo
[13] = Half life in C57BL/6 mouse at 10 mg/kg, po measured upto 72 hrs; format: ADME, organism-based; conditions: in vivo
[14] = AUC (0 to 72 hrs) in Cynomolgus monkey at 3 mg/kg, po or 1 mg/kg, iv measured upto 72 hrs; format: ADME, organism-based, Macaca fascicularis; parameters: dose 3 mg/kg, time < 72 hrs, route po; conditions: in vivo
[15] = AUC (0 to 72 hrs) in Beagle dog at 3 mg/kg, po or 1 mg/kg, iv measured upto 72 hrs; format: ADME, organism-based, Canis lupus familiaris; parameters: dose 3 mg/kg, time < 72 hrs, route po; conditions: in vivo
[16] = Volume of distribution at steady state in Sprague-Dawley rat at 3 mg/kg, po or 1 mg/kg, iv measured upto 24 hrs; format: ADME, organism-based; conditions: in vivo
[17] = Tmax in Cynomolgus monkey at 3 mg/kg, po or 1 mg/kg, iv measured upto 72 hrs; format: ADME, organism-based, Macaca fascicularis; conditions: in vivo
[18] = Bioavailability in Beagle dog at 3 mg/kg, po or 1 mg/kg, iv measured upto 72 hrs; format: ADME, organism-based, Canis lupus familiaris; conditions: in vivo
[19] = Plasma protein binding in Cynomolgus monkey; format: ADME, cell-free, Macaca fascicularis; conditions: read-out: PPB (converted)
[20] = target: Voltage-gated inwardly rectifying potassium channel KCNH2 (Homo sapiens, UniProt Q12809); experiment: Inhibition of human ERG; format: toxicity
[21] = Tmax in Beagle dog at 3 mg/kg, po or 1 mg/kg, iv measured upto 72 hrs; format: ADME, organism-based, Canis lupus familiaris; conditions: in vivo
[22] = Plasma protein binding in human; format: ADME, cell-free; parameters: dose or concentration left out as unconfirmed; conditions: route po, read-out: PPB (converted)
[23] = Plasma protein binding in Beagle dog; format: ADME, cell-free, Canis lupus familiaris; conditions: read-out: PPB (converted)
[24] = Cmax in Beagle dog at 3 mg/kg, po or 1 mg/kg, iv measured upto 72 hrs; format: ADME, organism-based, Canis lupus familiaris; parameters: time < 72 hrs, dose 3 mg/kg, route po; conditions: in vivo
[25] = Half life in Sprague-Dawley rat at 3 mg/kg, po or 1 mg/kg, iv measured upto 24 hrs; format: ADME, organism-based; conditions: in vivo
[26] = Half life in Beagle dog at 3 mg/kg, po or 1 mg/kg, iv measured upto 72 hrs; format: ADME, organism-based, Canis lupus familiaris; conditions: in vivo
[27] = Volume of distribution in steady state in Beagle dog at 3 mg/kg, po or 1 mg/kg, iv measured upto 72 hrs; format: ADME, organism-based, Canis lupus familiaris; conditions: in vivo
[28] = AUC (0 to 24 hrs) in Sprague-Dawley rat at 3 mg/kg, po or 1 mg/kg, iv measured upto 24 hrs; format: ADME, organism-based; parameters: time < 24 hrs, dose 3 mg/kg, route po; conditions: in vivo
[29] = Cmax in Sprague-Dawley rat at 3 mg/kg, po or 1 mg/kg, iv measured upto 24 hrs; format: ADME, organism-based; parameters: dose 3 mg/kg, time < 24 hrs, route po; conditions: in vivo
[30] = Cmax in Cynomolgus monkey at 3 mg/kg, po or 1 mg/kg, iv measured upto 72 hrs; format: ADME, organism-based, Macaca fascicularis; parameters: time < 72 hrs, dose 3 mg/kg, route po; conditions: in vivo
[31] = Tmax in Sprague-Dawley rat at 3 mg/kg, po or 1 mg/kg, iv measured upto 24 hrs; format: ADME, organism-based; conditions: in vivo
[32] = Bioavailability in Sprague-Dawley rat 3 mg/kg, po or 1 mg/kg, iv measured upto 24 hrs; format: ADME, organism-based; conditions: in vivo
[33] = Half life in Cynomolgus monkey at 3 mg/kg, po or 1 mg/kg, iv measured upto 72 hrs; format: ADME, organism-based, Macaca fascicularis; conditions: in vivo
[34] = Plasma protein binding in Sprague-Dawley rat; format: ADME, cell-free; conditions: read-out: PPB (converted)
[35] = Bioavailability in Cynomolgus monkey at 3 mg/kg, po or 1 mg/kg, iv measured upto 72 hrs; format: ADME, organism-based, Macaca fascicularis; conditions: in vivo

Chain of Calcium/calmodulin-dependent protein kinase kinase 1 (Q8N5S9 whole entry): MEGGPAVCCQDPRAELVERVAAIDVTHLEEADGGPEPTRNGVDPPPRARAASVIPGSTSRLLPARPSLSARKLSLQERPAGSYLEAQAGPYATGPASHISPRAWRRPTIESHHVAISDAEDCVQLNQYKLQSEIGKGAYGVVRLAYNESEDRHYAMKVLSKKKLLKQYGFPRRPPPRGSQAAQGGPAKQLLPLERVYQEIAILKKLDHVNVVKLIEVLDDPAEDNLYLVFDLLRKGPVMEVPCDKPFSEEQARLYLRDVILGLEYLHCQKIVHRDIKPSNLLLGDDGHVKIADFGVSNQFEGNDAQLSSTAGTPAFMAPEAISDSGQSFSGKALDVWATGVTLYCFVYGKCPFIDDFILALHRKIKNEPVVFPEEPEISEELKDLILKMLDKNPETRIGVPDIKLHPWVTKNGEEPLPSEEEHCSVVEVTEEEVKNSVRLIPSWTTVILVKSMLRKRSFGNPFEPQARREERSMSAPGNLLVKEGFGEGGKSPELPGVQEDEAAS
Chain of Calcium/calmodulin-dependent protein kinase kinase 2 (Q96RR4 whole entry): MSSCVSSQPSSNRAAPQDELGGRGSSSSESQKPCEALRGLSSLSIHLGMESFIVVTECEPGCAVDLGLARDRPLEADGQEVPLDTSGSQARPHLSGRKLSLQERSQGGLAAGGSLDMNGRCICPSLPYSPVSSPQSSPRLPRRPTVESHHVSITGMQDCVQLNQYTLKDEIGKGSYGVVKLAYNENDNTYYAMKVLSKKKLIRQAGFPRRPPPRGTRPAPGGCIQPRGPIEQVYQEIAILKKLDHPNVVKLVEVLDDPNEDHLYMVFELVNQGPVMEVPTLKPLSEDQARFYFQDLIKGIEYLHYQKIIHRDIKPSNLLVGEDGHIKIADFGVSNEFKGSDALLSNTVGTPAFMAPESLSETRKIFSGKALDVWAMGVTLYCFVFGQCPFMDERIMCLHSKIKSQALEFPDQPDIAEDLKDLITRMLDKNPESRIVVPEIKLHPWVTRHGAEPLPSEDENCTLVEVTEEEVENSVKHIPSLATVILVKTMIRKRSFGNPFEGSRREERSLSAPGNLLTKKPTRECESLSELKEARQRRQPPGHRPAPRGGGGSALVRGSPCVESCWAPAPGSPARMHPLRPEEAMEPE
Chain of Voltage-gated inwardly rectifying potassium channel KCNH2 (Q12809 whole entry): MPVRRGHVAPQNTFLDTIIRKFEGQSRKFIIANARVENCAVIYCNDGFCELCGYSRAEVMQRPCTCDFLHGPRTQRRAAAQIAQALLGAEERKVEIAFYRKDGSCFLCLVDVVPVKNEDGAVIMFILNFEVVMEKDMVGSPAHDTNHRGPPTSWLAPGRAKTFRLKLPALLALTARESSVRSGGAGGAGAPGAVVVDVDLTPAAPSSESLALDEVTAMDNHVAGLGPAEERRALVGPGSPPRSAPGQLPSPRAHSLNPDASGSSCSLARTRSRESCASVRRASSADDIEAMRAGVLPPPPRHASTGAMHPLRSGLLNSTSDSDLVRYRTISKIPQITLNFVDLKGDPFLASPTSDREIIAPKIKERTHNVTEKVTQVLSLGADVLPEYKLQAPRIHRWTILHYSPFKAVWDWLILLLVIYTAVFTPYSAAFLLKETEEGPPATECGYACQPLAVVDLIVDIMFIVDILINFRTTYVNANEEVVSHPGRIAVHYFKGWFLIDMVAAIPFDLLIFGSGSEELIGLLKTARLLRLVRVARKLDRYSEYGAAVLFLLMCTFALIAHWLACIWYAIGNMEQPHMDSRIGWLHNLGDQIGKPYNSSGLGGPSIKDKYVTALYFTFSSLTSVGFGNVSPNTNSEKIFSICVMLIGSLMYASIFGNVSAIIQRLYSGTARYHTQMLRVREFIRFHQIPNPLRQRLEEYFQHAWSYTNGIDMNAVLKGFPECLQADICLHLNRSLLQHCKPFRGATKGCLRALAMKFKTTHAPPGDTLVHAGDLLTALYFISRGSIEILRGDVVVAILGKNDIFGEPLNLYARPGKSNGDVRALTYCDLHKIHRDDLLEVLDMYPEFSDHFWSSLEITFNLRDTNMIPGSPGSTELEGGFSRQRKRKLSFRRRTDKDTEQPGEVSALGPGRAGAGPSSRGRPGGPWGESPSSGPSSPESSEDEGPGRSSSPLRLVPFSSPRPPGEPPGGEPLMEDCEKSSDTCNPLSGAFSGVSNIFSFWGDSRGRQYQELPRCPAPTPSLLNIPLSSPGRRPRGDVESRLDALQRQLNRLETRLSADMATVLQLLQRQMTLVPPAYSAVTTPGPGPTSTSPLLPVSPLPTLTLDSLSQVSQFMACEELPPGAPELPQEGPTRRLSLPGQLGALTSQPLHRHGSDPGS
Chain of Von Hippel-Lindau disease tumor suppressor/Elongin B/Elongin C (P40337 whole entry, looked up, the tested form may be a part): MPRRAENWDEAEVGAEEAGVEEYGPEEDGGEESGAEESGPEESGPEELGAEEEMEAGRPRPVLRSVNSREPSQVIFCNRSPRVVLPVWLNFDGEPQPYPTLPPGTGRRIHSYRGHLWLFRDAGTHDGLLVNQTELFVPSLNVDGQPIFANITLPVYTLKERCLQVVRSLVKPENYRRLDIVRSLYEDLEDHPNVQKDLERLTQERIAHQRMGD

In the case of `Cc1ncsc1-c1ccc(CNC(=O)[C@@H]2C[C@@H](O)CN2C(=O)[C@@H](NC(=O)CCCCCCCOc2ccc3c(-c4ccc(C(=O)O)c(C5CCCC5)c4)ncnc3c2)C(C)(C)C)cc1`, the pEC50 [1] was 6.29.

`Cc1ncsc1-c1ccc(CNC(=O)[C@@H]2C[C@@H](O)CN2C(=O)[C@@H](NC(=O)CCCCCCOc2ccc3c(-c4ccc(C(=O)O)c(C5CCCC5)c4)ncnc3c2)C(C)(C)C)cc1` showed a pEC50 [1] of 5.70.

With `CCOc1cc2ncnc(-c3ccc(C(=O)O)c(C4CCCC4)c3)c2cc1F` the pIC50 [2] was 7.27.

`CCOc1cc2ncnc(-c3ccc(C(=O)O)c(C(C)C)c3)c2cc1F` gave a pIC50 [2] of 7.96.

`Cc1ncsc1-c1ccc(CNC(=O)[C@@H]2C[C@@H](O)CN2C(=O)[C@@H](NC(=O)CCCCCCCCOc2ccc3c(-c4ccc(C(=O)O)c(C5CCCC5)c4)ncnc3c2)C(C)(C)C)cc1` gave a pEC50 [1] of 6.21.

In the case of `Cc1ncsc1-c1ccc(CNC(=O)[C@@H]2C[C@@H](O)CN2C(=O)[C@@H](NC(=O)CCCCCCCCCCOc2ccc3c(-c4ccc(C(=O)O)c(C5CCCC5)c4)ncnc3c2)C(C)(C)C)cc1`, the pEC50 [1] was 6.28.

`CCOc1ccc2c(-c3ccc(C(=O)O)c(C(C)C)c3)ncnc2c1` showed a pIC50 [2] of 7.33.

In the case of `Cc1ncsc1-c1ccc(CNC(=O)[C@@H]2C[C@@H](O)CN2C(=O)[C@@H](NC(=O)CCCCCCCCCOc2ccc3c(-c4ccc(C(=O)O)c(C5CCCC5)c4)ncnc3c2)C(C)(C)C)cc1`, the Cmax [3] was 7.18 µM, the pKd [4] was 6.89 and the AUC(0-t) at 72 h [5] was 3.96 µM·h. The pEC50 (A-427) was < 5.10, the Cmax [6] was 3.21 µM and the bioavailability [7] was 100%. For the same compound, the bioavailability [8] was 18%, the half-life [9] was 24 h and the Tmax [10] was 0.5 h. It also gave a pIC50 [2] of 7.03, an AUC(0-t) at 72 h [11] of 39.9 µM·h and a Tmax [12] of 0.5 h. It also gave a half-life [13] of 8.1 h.

In the case of `Cc1ncsc1-c1ccc(CNC(=O)[C@@H]2C[C@@H](O)CN2C(=O)[C@@H](NC(=O)CCCCCOc2ccc3c(-c4ccc(C(=O)O)c(C5CCCC5)c4)ncnc3c2)C(C)(C)C)cc1`, the pEC50 [1] was < 5.00.

With `CCOc1cc(F)c2c(-c3ccc(C(=O)O)c(C(C)C)c3)ncnc2c1` the AUC(0-t) at 72 h [14] was 282 µM·h, the AUC(0-t) at 72 h [15] was 79 µM·h and the Vdss [16] was 0.57 L/kg. It also gave a Tmax [17] of 1.7 h, a bioavailability [18] of 68% and a fraction unbound [19] of 0.007. The pIC50 [20] was < 4.52, the Tmax [21] was 0.5 h and the fraction unbound at 72 h [22] was 0.003. For the same compound, the fraction unbound [23] was 0.02, the Cmax [24] was 30 µM and the half-life [25] was 4.9 h. For the same compound, the half-life [26] was 11 h, the Vdss [27] was 0.44 L/kg and the AUC(0-t) at 24 h [28] was 58 µM·h. It also gave a Cmax [29] of 19 µM, a Cmax [30] of 28 µM and a pIC50 [2] of 7.92. For the same compound, the Tmax [31] was 3 h, the bioavailability [32] was 80% and the half-life [33] was 20 h. The fraction unbound [34] was 0.012 and the bioavailability [35] was 95%.

With `Cc1ncsc1-c1ccc(CNC(=O)[C@@H]2C[C@@H](O)CN2C(=O)[C@@H](NC(=O)CCCCCCCCCCCOc2ccc3c(-c4ccc(C(=O)O)c(C5CCCC5)c4)ncnc3c2)C(C)(C)C)cc1` the pEC50 [1] was 5.35.

In the case of `Cc1ncsc1-c1ccc(CNC(=O)[C@@H]2C[C@@H](O)CN2C(=O)[C@@H](N(C)C(=O)CCCCCCCCCOc2ccc3c(-c4ccc(C(=O)O)c(C5CCCC5)c4)ncnc3c2)C(C)(C)C)cc1`, the pEC50 [1] was < 5.00.

Reference: ChEMBL document CHEMBL5375964, “Identification of Small Molecule Inhibitors and Ligand Directed Degraders of Calcium/Calmodulin Dependent Protein Kinase Kinase 1 and 2 (CaMKK1/2)” (J Med Chem, 2023)
